Laboratory results taken from US20240002127A1 (priority 2020, published 2024).

Key:
[1] = assay type: in vivo, rats; conditions: rat
Protocol: A single dose PK study of ALC-0315 and […] following intravenous (IV) bolus injection of a nanoparticle formulation in rats was conducted to assess the PK and metabolism of lipid excipients ALC-0315 and ALC-0159.

[2] = assay type: in vitro ADME, mice, rats, monkeys, humans; conditions: mouse, rat, monkey, human
Protocol: In vitro metabolism of ALC-0315 and ALC-0159 was evaluated in blood, liver microsomes, S9 fractions, and hepatocytes from mice, rats, monkeys, and humans. In vivo metabolism was examined in rat plasma, urine, faeces, and liver samples from the PK study. […] ALC-0315 and ALC-0159 are apparently metabolised by hydrolytic metabolism of the ester and amide functionalities, respectively, and this hydrolytic metabolism is observed across the species evaluated.

[3] = target: human ACE2 peptidase domain (amino acids 1-615 of human ACE2 with C-terminal His-10 and Avi tags) (human) (UniProt Q9BYF1)
UniProt Q9BYF1, sequence (Q9BYF1 18-615 limits assumed): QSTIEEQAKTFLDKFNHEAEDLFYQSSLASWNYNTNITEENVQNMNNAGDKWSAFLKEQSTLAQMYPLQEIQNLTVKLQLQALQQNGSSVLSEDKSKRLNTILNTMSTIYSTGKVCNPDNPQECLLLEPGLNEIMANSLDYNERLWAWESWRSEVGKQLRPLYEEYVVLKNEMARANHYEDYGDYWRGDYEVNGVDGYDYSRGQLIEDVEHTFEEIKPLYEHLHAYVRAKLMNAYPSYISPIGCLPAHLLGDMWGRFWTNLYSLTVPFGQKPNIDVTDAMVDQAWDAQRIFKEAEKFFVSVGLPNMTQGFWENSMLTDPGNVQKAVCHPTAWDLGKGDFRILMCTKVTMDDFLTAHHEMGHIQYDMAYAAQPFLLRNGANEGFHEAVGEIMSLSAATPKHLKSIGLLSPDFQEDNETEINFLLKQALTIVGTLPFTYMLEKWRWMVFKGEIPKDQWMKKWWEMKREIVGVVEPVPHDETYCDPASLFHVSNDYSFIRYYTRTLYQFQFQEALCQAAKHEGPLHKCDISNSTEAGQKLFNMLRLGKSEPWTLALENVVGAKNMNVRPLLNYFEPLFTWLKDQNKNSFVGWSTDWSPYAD

Row | Compound | eliminated unchanged in faeces [1] | apparent terminal t½ in plasma and liver ([1]; IV) [h] | drop of concentration in liver ([1]; IV, over 2 weeks) [fold] | drop of concentration in plasma ([1]; IV, over 2 weeks) | metabolism in vitro and in vivo [2] | Kd [3] [pM] | fold difference of KD against the reported KD of monomeric RBD [3] [fold]
1 | CCCCCCCCC(CCCCCC)C(=O)OCCCCCCN(CCCCO)CCCCCCOC(=O)C(CCCCCC)CCCCCCCC (stereo not shown) [ALC-0315, ((4-hydroxybutyl)azanediyl)bis(hexane-6,1-diyl)bis(2-hexyldecanoate)] | little to no unchanged material | 140 to 190 | ~4 | approximately 7000 fold | relatively slowly | – | –
2 | RBD-foldon trimer (trimerised SARS-CoV-2 spike receptor-binding domain fused to T4 fibritin foldon, (other; other documents disagree on this pair) | – | – | – | – | – | 5 | 1000
